Here are results for three compounds from ChEMBL document CHEMBL6134798, “Classifying covalent protein binders by their targeted binding site” (Bioorg Med Chem Lett, 2025).

The target of test [1] is Epidermal growth factor receptor (Homo sapiens, UniProt P00533). As to the kind of experiment: Inhibition of EGFR (unknown origin).
A further test relates to K562. Nature of the test: Growth inhibition of human K562 cells. In kind it is functional.
Another test concerns the target T1, Secernin-3 (Homo sapiens, UniProt Q0VDG4).
T1 sequence (Q0VDG4 whole entry): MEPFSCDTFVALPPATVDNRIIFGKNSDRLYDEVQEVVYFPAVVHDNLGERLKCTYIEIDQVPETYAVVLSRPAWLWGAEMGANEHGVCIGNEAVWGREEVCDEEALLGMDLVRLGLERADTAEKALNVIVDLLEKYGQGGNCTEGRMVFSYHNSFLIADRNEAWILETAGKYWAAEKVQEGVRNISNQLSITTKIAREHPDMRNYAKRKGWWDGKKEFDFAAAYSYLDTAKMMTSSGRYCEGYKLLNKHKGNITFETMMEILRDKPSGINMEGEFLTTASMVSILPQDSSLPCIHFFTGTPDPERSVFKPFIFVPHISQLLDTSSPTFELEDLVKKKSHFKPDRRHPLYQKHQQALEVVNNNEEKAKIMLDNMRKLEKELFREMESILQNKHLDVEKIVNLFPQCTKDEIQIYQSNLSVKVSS
Nature of the test: Inhibition of full length human SCRN3 transfected in HEK293T cells. In kind it is cell-based.

Chain of Epidermal growth factor receptor (P00533 whole entry): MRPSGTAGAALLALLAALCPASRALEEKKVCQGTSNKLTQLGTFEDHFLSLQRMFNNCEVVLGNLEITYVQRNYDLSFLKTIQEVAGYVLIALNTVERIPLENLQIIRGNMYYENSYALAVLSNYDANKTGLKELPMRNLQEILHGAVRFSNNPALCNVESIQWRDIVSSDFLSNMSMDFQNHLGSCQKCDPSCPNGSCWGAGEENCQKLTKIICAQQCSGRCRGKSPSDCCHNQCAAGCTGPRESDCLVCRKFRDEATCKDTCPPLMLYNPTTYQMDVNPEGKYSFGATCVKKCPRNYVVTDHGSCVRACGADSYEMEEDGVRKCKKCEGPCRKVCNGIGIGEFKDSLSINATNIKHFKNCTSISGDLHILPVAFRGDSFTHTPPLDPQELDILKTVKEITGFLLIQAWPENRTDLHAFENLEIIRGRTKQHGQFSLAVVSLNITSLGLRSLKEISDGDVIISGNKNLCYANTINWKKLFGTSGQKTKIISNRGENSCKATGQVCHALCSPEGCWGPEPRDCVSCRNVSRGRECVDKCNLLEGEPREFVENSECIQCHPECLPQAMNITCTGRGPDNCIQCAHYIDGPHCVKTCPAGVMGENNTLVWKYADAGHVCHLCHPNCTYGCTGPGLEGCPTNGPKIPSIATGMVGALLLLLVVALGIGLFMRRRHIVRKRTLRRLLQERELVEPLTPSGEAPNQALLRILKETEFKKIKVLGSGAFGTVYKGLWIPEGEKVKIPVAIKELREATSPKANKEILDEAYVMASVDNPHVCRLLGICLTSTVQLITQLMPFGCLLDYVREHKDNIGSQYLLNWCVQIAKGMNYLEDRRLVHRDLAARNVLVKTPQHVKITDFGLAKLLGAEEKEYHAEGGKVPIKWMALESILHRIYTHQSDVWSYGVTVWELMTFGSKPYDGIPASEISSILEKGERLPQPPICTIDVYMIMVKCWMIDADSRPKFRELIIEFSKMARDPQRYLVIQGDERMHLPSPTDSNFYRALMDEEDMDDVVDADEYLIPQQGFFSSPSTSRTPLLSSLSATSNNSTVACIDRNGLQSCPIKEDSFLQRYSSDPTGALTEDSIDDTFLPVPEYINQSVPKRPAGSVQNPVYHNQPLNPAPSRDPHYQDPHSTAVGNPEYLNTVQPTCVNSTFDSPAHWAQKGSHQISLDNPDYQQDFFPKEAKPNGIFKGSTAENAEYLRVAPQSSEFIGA

One may read the IC50 as the concentration that gives 50% inhibition. The low end stands for greater potency in that assay, the high end for weaker potency in that assay. Turning to `C=CC(=O)N1CCN(c2ncnc3c(F)c(-c4c(O)cccc4F)c(Cl)cc23)CC1`, the IC50 in test [1] was 120 nM.
One may read the GI50 as the concentration that inhibits growth by half. A low value points to more potent growth inhibition. In the test with K562, `COc1cc(O)c(C=O)cc1-c1c[nH]c2ncc(-c3cncc(C(=O)N(C)C)c3)cc12` came in with a concentration for 50% growth inhibition (GI50) of 55.6 nM.
In turn, `NNc1ccc2ccccc2c1` had an IC50 at Secernin-3 of 200 nM.
